We go through three compounds from patent publication US20160175380A1, “Compositions and Methods of Treatment of Corneal Endothelium Disorders” (The Schepens Eye Research Institute, Inc., priority 2010, published 2016).

SMILES strings stand for the structures. Read-outs that look alike come from different tables or passages of the source.

For assay [1], the system named is FECD corneal endothelium attached to the Descemet membrane. Briefly: Endothelial cell apoptosis (TUNEL) in post-keratoplasty FECD specimens, +/- tBHP. It is filed as cell-based, human. As to the method:
Immunocytochemistry. […] After permeabilization, corneas were incubated with goat anti-8-OHdG (1:200; Millipore) followed by incubation with appropriate secondary antibodies. Nuclei were stained with TO-PRO-3 iodide (Molecular Probes). Corneal endothelial tight junctions were detected by rabbit anti-zonula occludens-1 (anti-ZO-1) antibody (1:300; Invitrogen).
An Nrf2-controlled pathway is affected during the endothelial cell loss from surgery and from dystrophic degeneration. […] Nrf2 is a transcription factor that causes a coordinated upregulation of multiple antioxidants, such as glutathione transferases, glutathione peroxidases, peroxiredoxins, thioredoxins, NADH(P)H hydrogenases, heme-oxygenases, glutamate- cysteine ligases. Sulforaphane (SF) and D3T upregulate Nrf2 on a protein level and enhance cellular antioxidant defense. Thus, studies were carried out to investigate the effect of SF on endothelial cell apoptosis with and without pro-oxidants. Post-keratoplasty FECD specimens, containing corneal endothelium attached to the Descemet membrane, were exposed to four experimental conditions: +/− tBHP with is a long acting pro-oxidant and +/−SF. The rate of endothelial cell apoptosis (as detected by TUNEL) in FECD endothelium was 31% and it decreased to 13% (p=1.5E-06) with SF treatment. Under pro-oxidant conditions, SF decreased endothelial cell apoptosis from 60% to 33% (p=0.016) (FIG. 11A). Similarly, D3T diminished endothelial cell apoptosis by decreasing the number of apoptotic cells from 52% to 30% (p<0.05) (FIG. 11B).

In assay [2] the test system is Nrf2 mRNA expression in HCECi. The note with it: H2O2 200 μM, 2 hours; normalized to B2M; non-treated control 1.00±0.05; P=0.004. The protocol: Human Corneal Endothelial Cell Culture. […] The culture medium of subconfluent cells was replaced with serum-free medium (OptiMEM-1; Invitrogen-Life Technologies) alone or supplemented with H2O2 (200 μM) and incubated for 2 hours at 37° C. At the end of the treatment, cell viability was evaluated by trypan blue staining. Real-time PCR. […] Reverse transcription was performed using a commercially available kit (Promega). […] Real-time PCR reactions were run on an ABI Prism 7500 HT Sequence Detection System (Applied Biosystems). For data analysis, the comparative Ct method was performed.

Assay [3] concerns HCECi. Conditions: H2O2 200 μM, 2 hours; P=0.001. The protocol:
Human Corneal Endothelial Cell Culture. […] The culture medium of subconfluent cells was replaced with serum-free medium (OptiMEM-1; Invitrogen-Life Technologies) alone or supplemented with H2O2 (200 μM) and incubated for 2 hours at 37° C. At the end of the treatment, cell viability was evaluated by trypan blue staining.

The subject of assay [4] is mouse corneal endothelium. Conditions: 30 minutes. The protocol: Corneal Whole Mount Assays. Eight (8-) to 12-wk-old male BALB/c and C57BL/6 (from Taconic Farms, Germantown, NY and our own breeding facility) were used for corneal whole mount assays. All protocols were approved by the Schepens Eye Research Institute Animal Care and Use Committee, and all animals were treated according to the Association for Research in Vision and Ophthalmology Statement for the Use of Animals in Ophthalmic and Vision Research. […] Control corneal buttons were incubated in DMEM only at 37° C. for 0-12 hours. Immunocytochemistry. Immunocytochemistry was performed as previously described.17 Normal, FECD, and PBK corneas were incubated in culture medium containing 100 nM MitoTracker Red CMXRos (Molecular Probes) for 30 minutes at 37° C., then fixed with 3.7% formaldehyde. […] Millipore) followed by incubation with appropriate secondary antibodies. Nuclei were stained with TO-[…] iodide (Molecular Probes). […] Invitrogen). […] Bioscience), propidium iodide (1:200; Invitrogen), and TUNEL assay (In Situ Cell Death Detection Kit, Roche Diagnostics GmbH) according to the manufacturers' instructions. Digital images were obtained using a spectral photometric confocal microscope ([…][…] with LCS 1.3.1 software). Analysis of CE Cell Morphology. […] (variation in cell size) and pleomorphism (variation in cell shape) were then calculated.

The subject of assay [5] is mouse corneal endothelium. Conditions: 1 μM. As to the method: Corneal Whole Mount Assays. Eight (8-) to 12-wk-old male BALB/c and C57BL/6 (from Taconic Farms, Germantown, NY and our own breeding facility) were used for corneal whole mount assays. All protocols were approved by the Schepens Eye Research Institute Animal Care and Use Committee, and all animals were treated according to the Association for Research in Vision and Ophthalmology Statement for the Use of Animals in Ophthalmic and Vision Research. […] Control corneal buttons were incubated in DMEM only at 37° C. for 0-12 hours. Immunocytochemistry. Immunocytochemistry was performed as previously described.17 Normal, FECD, and PBK corneas were incubated in culture medium containing 100 nM MitoTracker Red CMXRos (Molecular Probes) for 30 minutes at 37° C., then fixed with 3.7% formaldehyde. […] Millipore) followed by incubation with appropriate secondary antibodies. Nuclei were stained with TO-[…] iodide (Molecular Probes). […] Invitrogen). […] Bioscience), propidium iodide (1:200; Invitrogen), and TUNEL assay (In Situ Cell Death Detection Kit, Roche Diagnostics GmbH) according to the manufacturers' instructions. Digital images were obtained using a spectral photometric confocal microscope ([…][…] with LCS 1.3.1 software).

Consider `C[S+]([O-])CCCCN=C=S` (stereo not shown) [SF, sulforaphane], for which the “rate of endothelial cell apoptosis (as detected by TUNEL) with SF treatment” value in assay [1] (FECD endothelium, without pro-oxidant (tBHP-), 31% without SF, p=1.5E-06) worked out at 13%. In assay [1] (FECD specimens exposed to tBHP, 60% without SF, p=0.016), the “endothelial cell apoptosis with SF under pro-oxidant conditions” value came to 33%. In addition, in assay [1] (SF treatment, without pro-oxidant conditions [tBHP-], p=1.57E-06), the “decrease of endothelial cell apoptosis in FECD” value was 58%. The “decrease of endothelial cell apoptosis” value in assay [1] (specimens exposed to pro-oxidants or tBHP, p=0.016) was ≤ 45%.
In the case of `OO` [H2O2, hydrogen peroxide], the “relative expression of Nrf2 mRNA (mean±SEM)” value in assay [2] came out at 0.66±0.02. In addition, in assay [3], the “level of 8-OHdG relative to control cells” value was 2 fold. In assay [4] (0-100 μM), the “CE cell density as measured by ZO-1 labeling” value is recorded as “no statistically significant effect”. Besides, in assay [4] (100 μM, P=0.007), the “percent of hexagonal cells (pleomorphism)” value is “declined significantly”. The “mitochondrial staining (MitoTracker CMXRos)” value in assay [5] (1-hour treatment) was “decline in the mitochondrial density”; in assay [5] (2-hour treatment, P<0.01), “no detectable mitochondrial staining”; in assay [5] (90 minutes, P<0.01), “significant decrease”. Moreover, the “CE cells with early apoptosis (annexin-V-positive, PI-negative)” value in assay [5] (60 minutes, P<0.01) is on record as “Approximately 5%”; in assay [5] (90 minutes, P<0.01) it was ~11%. In assay [5] (120 minutes, P<0.01), the “late apoptosis (annexin-V-positive, PI-positive)” value is “identified”.
Turning to `S=c1ccss1` [D3T, 3H-1,2-dithiole-3-thione], the “number of apoptotic cells with D3T” value in assay [1] (FECD, absence of oxidative stress, 52% without D3T, p<0.05) came out at 30%. Besides, the “effect on percentage of apoptotic cells in FECD” value in assay [1] (absence of oxidative stress) is on record as “decreased the percentage of apoptotic cells”.
